Measurements from PubChem BioAssay (NCI).
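Cultured in 96-well plates, cells were exposed to test compound for 48 hours across five concentrations. Definition used: TGI = concentration required for complete inhibition of growth.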

What was measured:
Test in all cases: DTP human tumour cell line panel, 48 h
SF-295 CNS = test system: SF-295 CNS
HCT-116 colon = test system: HCT-116 colon
MALME-3M melanoma = test system: MALME-3M melanoma
IGROV1 ovarian = test system: IGROV1 ovarian
SNB-19 CNS = test system: SNB-19 CNS
SK-MEL-28 melanoma = test system: SK-MEL-28 melanoma
CAKI-1 renal = test system: CAKI-1 renal
HOP-18 NSCLC = test system: HOP-18 NSCLC
RPMI-8226 leukemia = test system: RPMI-8226 leukemia
OVCAR-3 ovarian = test system: OVCAR-3 ovarian
LOX IMVI melanoma = test system: LOX IMVI melanoma
HL-60(TB) leukemia = test system: HL-60(TB) leukemia
RXF 393 renal = test system: RXF 393 renal
SF-539 CNS = test system: SF-539 CNS
DMS 273 small cell lung = test system: DMS 273 small cell lung
NCI-H460 lung = test system: NCI-H460 lung
M14 melanoma = test system: M14 melanoma
HCT-15 colon = test system: HCT-15 colon
SR leukemia = test system: SR leukemia
NCI-H23 lung = test system: NCI-H23 lung
HOP-92 NSCLC = test system: HOP-92 NSCLC
HOP-62 NSCLC = test system: HOP-62 NSCLC
HCC-2998 colon = test system: HCC-2998 colon
KM20L2 colon = test system: KM20L2 colon
COLO 205 colon = test system: COLO 205 colon
UO-31 renal = test system: UO-31 renal
OVCAR-8 ovarian = test system: OVCAR-8 ovarian
DLD-1 colon = test system: DLD-1 colon
SW-620 colon = test system: SW-620 colon
SK-OV-3 ovarian = test system: SK-OV-3 ovarian
SF-268 CNS = test system: SF-268 CNS
SNB-78 CNS = test system: SNB-78 CNS
HT29 colon = test system: HT29 colon
A549 NSCLC = test system: A549 NSCLC
SK-MEL-2 melanoma = test system: SK-MEL-2 melanoma
U251 CNS = test system: U251 CNS
KM12 colon = test system: KM12 colon
UACC-257 melanoma = test system: UACC-257 melanoma
SN12C renal = test system: SN12C renal
M19-MEL melanoma = test system: M19-MEL melanoma
SK-MEL-5 melanoma = test system: SK-MEL-5 melanoma
SNB-75 CNS = test system: SNB-75 CNS
MOLT-4 leukemia = test system: MOLT-4 leukemia
OVCAR-4 ovarian = test system: OVCAR-4 ovarian
EKVX NSCLC = test system: EKVX NSCLC
NCI-H522 lung = test system: NCI-H522 lung
NCI-H226 lung = test system: NCI-H226 lung
LXFL 529 NSCLC = test system: LXFL 529 NSCLC
ACHN renal = test system: ACHN renal
786-0 renal = test system: 786-0 renal
K-562 leukemia = test system: K-562 leukemia
OVCAR-5 ovarian = test system: OVCAR-5 ovarian
TK-10 renal = test system: TK-10 renal
UACC-62 melanoma = test system: UACC-62 melanoma
MDA-N = test system: MDA-N
HS 578T breast = test system: HS 578T breast
MDA-MB-231 breast = test system: MDA-MB-231 breast
T-47D breast = test system: T-47D breast
MCF7 breast = test system: MCF7 breast
DU-145 prostate = test system: DU-145 prostate
MDA-MB-435 = test system: MDA-MB-435
PC-3 prostate = test system: PC-3 prostate
NCI/ADR-RES ovarian = test system: NCI/ADR-RES ovarian
A498 renal = test system: A498 renal
CCRF-CEM leukemia = test system: CCRF-CEM leukemia
BT-549 breast = test system: BT-549 breast

With Cn1c(NC(=O)NC23CC4CC(CC(C4)C2)C3)nc2ccccc21 the TGI (SF-295 CNS) was 52.3 µM, the TGI (HCT-116 colon) was greater than 100 µM and the TGI (MALME-3M melanoma) was 81.6 µM. The TGI (IGROV1 ovarian) was greater than 100 µM, the TGI (SNB-19 CNS) was greater than 100 µM and the TGI (SK-MEL-28 melanoma) was greater than 100 µM. It also gave a TGI (CAKI-1 renal) greater than 100 µM, a TGI (HOP-18 NSCLC) greater than 100 µM and a TGI (RPMI-8226 leukemia) greater than 100 µM. The TGI (OVCAR-3 ovarian) was greater than 100 µM, the TGI (LOX IMVI melanoma) was greater than 100 µM and the TGI (HL-60(TB) leukemia) was greater than 100 µM. The TGI (RXF 393 renal) was 57.4 µM, the TGI (SF-539 CNS) was greater than 100 µM and the TGI (DMS 273 small cell lung) was greater than 100 µM. For the same compound, the TGI (NCI-H460 lung) was greater than 100 µM, the TGI (M14 melanoma) was greater than 100 µM and the TGI (HCT-15 colon) was greater than 100 µM. It also gave a TGI (SR leukemia) greater than 100 µM, a TGI (NCI-H23 lung) greater than 100 µM and a TGI (HOP-92 NSCLC) of 90.6 µM. For the same compound, the TGI (HOP-62 NSCLC) was greater than 100 µM, the TGI (HCC-2998 colon) was greater than 100 µM and the TGI (KM20L2 colon) was greater than 100 µM. It also gave a TGI (COLO 205 colon) greater than 100 µM, a TGI (UO-31 renal) greater than 100 µM and a TGI (OVCAR-8 ovarian) greater than 100 µM. It also gave a TGI (DLD-1 colon) greater than 100 µM, a TGI (SW-620 colon) greater than 100 µM and a TGI (SK-OV-3 ovarian) of 51.8 µM. For the same compound, the TGI (SF-268 CNS) was greater than 100 µM, the TGI (SNB-78 CNS) was 97 µM and the TGI (HT29 colon) was greater than 100 µM. For the same compound, the TGI (A549 NSCLC) was greater than 100 µM, the TGI (SK-MEL-2 melanoma) was greater than 100 µM and the TGI (U251 CNS) was greater than 100 µM. For the same compound, the TGI (KM12 colon) was greater than 100 µM, the TGI (UACC-257 melanoma) was greater than 100 µM and the TGI (SN12C renal) was greater than 100 µM. For the same compound, the TGI (M19-MEL melanoma) was greater than 100 µM, the TGI (SK-MEL-5 melanoma) was greater than 100 µM and the TGI (SNB-75 CNS) was 21.1 µM. It also gave a TGI (MOLT-4 leukemia) greater than 100 µM, a TGI (OVCAR-4 ovarian) of 28.5 µM and a TGI (EKVX NSCLC) greater than 100 µM. For the same compound, the TGI (NCI-H522 lung) was greater than 100 µM, the TGI (NCI-H226 lung) was greater than 100 µM and the TGI (LXFL 529 NSCLC) was greater than 100 µM. It also gave a TGI (ACHN renal) greater than 100 µM, a TGI (786-0 renal) of 81.5 µM and a TGI (K-562 leukemia) greater than 100 µM. It also gave a TGI (OVCAR-5 ovarian) greater than 100 µM, a TGI (TK-10 renal) greater than 100 µM and a TGI (UACC-62 melanoma) greater than 100 µM.

O=C1C=C/C(=C/[C@H]2SSC=C[C@]23C=CC(=O)C3)C1 gave a TGI (SF-295 CNS) greater than 100 µM, a TGI (MDA-N) of 51.3 µM and a TGI (HCT-116 colon) of 22 µM. The TGI (MALME-3M melanoma) was 41.5 µM, the TGI (IGROV1 ovarian) was 48 µM and the TGI (SNB-19 CNS) was greater than 100 µM. The TGI (SK-MEL-28 melanoma) was 42 µM, the TGI (CAKI-1 renal) was 24.8 µM and the TGI (RPMI-8226 leukemia) was greater than 100 µM. The TGI (OVCAR-3 ovarian) was 85.6 µM, the TGI (HS 578T breast) was 93.2 µM and the TGI (LOX IMVI melanoma) was greater than 48.7 µM. It also gave a TGI (MDA-MB-231 breast) greater than 83.1 µM, a TGI (T-47D breast) greater than 100 µM and a TGI (HL-60(TB) leukemia) of 15.1 µM. For the same compound, the TGI (RXF 393 renal) was 29.9 µM, the TGI (SF-539 CNS) was 61.3 µM and the TGI (MCF7 breast) was greater than 100 µM. For the same compound, the TGI (NCI-H460 lung) was greater than 94.3 µM, the TGI (M14 melanoma) was greater than 54.7 µM and the TGI (HCT-15 colon) was 48.2 µM. For the same compound, the TGI (SR leukemia) was greater than 100 µM, the TGI (NCI-H23 lung) was 44.1 µM and the TGI (HOP-92 NSCLC) was 61.5 µM. The TGI (HOP-62 NSCLC) was greater than 73.8 µM, the TGI (HCC-2998 colon) was 44.7 µM and the TGI (DU-145 prostate) was 47.3 µM. The TGI (COLO 205 colon) was 53 µM, the TGI (UO-31 renal) was 32.5 µM and the TGI (OVCAR-8 ovarian) was greater than 81 µM. It also gave a TGI (SW-620 colon) greater than 51.5 µM, a TGI (SK-OV-3 ovarian) greater than 100 µM and a TGI (SF-268 CNS) greater than 85.2 µM. The TGI (HT29 colon) was 32.2 µM, the TGI (A549 NSCLC) was 63.2 µM and the TGI (MDA-MB-435) was greater than 53.1 µM. The TGI (SK-MEL-2 melanoma) was greater than 76.2 µM, the TGI (PC-3 prostate) was greater than 84.9 µM and the TGI (U251 CNS) was greater than 100 µM. It also gave a TGI (KM12 colon) of 46.6 µM, a TGI (UACC-257 melanoma) of 99.8 µM and a TGI (SN12C renal) of 52.3 µM. The TGI (SK-MEL-5 melanoma) was 38.9 µM, the TGI (SNB-75 CNS) was greater than 100 µM and the TGI (MOLT-4 leukemia) was 7.16 µM. For the same compound, the TGI (NCI/ADR-RES ovarian) was 68.1 µM, the TGI (A498 renal) was 38.3 µM and the TGI (OVCAR-4 ovarian) was greater than 74.2 µM. The TGI (CCRF-CEM leukemia) was 9.27 µM, the TGI (EKVX NSCLC) was 63.6 µM and the TGI (BT-549 breast) was 46.8 µM. The TGI (NCI-H522 lung) was 27.7 µM, the TGI (NCI-H226 lung) was 29.2 µM and the TGI (ACHN renal) was 55.5 µM. For the same compound, the TGI (786-0 renal) was 28.7 µM, the TGI (K-562 leukemia) was greater than 100 µM and the TGI (OVCAR-5 ovarian) was 28.4 µM. For the same compound, the TGI (TK-10 renal) was greater than 64.7 µM and the TGI (UACC-62 melanoma) was 58.7 µM.
